Source: patent US20260265329A1, “POLYPEPTIDE AND DERIVATIVE THEREOF, COMPOSITION, AND USE THEREOF” (HANGZHOU SCIWIND BIOSCIENCES CO., LTD., priority 2023, published 2026)
Starred links: 1 amine or outer side, 2 acyl side, 3 side chain; linkers in the order of their positions; H or OH if unused. Non-standard residues stand in square brackets, D forms with d. Residues, ends and D or L forms follow the SMILES beside them. *: point of attachment. C20 diacid = O=C(O)CCCCCCCCCCCCCCCCCCC(=O)*; γGlu = O=C(O)[C@H](CCC(=O)[*:2])N[*:1]; βAsp = O=C(O)[C@H](CC(=O)[*:2])N[*:1]; Hyp = O=C(O)[C@@H]1C[C@@H](O)CN1; Trx = NC[C@H]1CC[C@H](C(=O)O)CC1; AEEA = NCCOCCOCC(=O)O; Inp = O=C(O)C1CCNCC1

Target: T1, human amylin receptors (Homo sapiens, UniProt O60896+P30988)
T1 construct: host or cells: CHO-K1/Ga15/AMY3 cells, further stably transfected with a CRE-luciferase plasmid
T1 sequence (P30988 25-474): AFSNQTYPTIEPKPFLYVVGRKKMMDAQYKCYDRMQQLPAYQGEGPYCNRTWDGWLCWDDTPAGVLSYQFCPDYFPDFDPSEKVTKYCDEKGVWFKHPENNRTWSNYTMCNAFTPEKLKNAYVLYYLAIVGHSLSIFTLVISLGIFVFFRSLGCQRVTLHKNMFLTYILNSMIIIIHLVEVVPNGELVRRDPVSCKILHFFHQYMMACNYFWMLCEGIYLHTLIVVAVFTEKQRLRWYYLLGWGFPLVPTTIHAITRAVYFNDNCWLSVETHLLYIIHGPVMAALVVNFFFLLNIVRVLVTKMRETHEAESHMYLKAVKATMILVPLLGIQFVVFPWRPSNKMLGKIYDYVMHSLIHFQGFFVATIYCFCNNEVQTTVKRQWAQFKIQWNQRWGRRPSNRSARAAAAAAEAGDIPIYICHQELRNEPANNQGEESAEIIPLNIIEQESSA
T1 sequence (O60896 24-148 partner): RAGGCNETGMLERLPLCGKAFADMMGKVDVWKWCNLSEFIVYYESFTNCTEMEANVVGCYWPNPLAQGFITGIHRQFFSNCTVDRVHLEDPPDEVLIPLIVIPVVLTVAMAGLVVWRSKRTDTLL
Assay: Luciferase assay in stably transfected amylin receptor/CRE-luc CHO cell line
Type: cell-based
Settings: for Relative activity: EC50 ratio of Cagrilintide to the compound, Cagrilintide 100%; for EC50: amylin receptor/CRE-luc CHO cells, 24 hours incubation, luminescence

Structure (SMILES)	Relative activity [%]	EC50 [nM]
CC[C@H](C)[C@H](NC(=O)[C@H](CC(=O)O)NC(=O)[C@H](CCCNC(=N)N)NC(=O)[C@H](CC(=O)O)NC(=O)[C@H](CCCNC(=N)N)NC(=O)[C@H](CC(=O)O)NC(=O)[C@@H](NC(=O)[C@H](Cc1ccccc1)NC(=O)[C@H](Cc1c[nH]cn1)NC(=O)[C@H](CCCNC(=N)N)NC(=O)[C@H](CC(C)C)NC(=O)[C@H](Cc1ccccc1)NC(=O)[C@H](CC(=O)O)NC(=O)[C@H](C)NC(=O)[C@H](CC(C)C)NC(=O)[C@H](CCCNC(=N)N)NC(=O)[C@H](CCC(N)=O)NC(=O)[C@@H](NC(=O)[C@H](C)NC(=O)[C@H](C)NC(=O)[C@@H](NC(=O)[C@H](CO)NC(=O)[C@H](CC(C)C)NC(=O)[C@H](CCC(N)=O)NC(=O)[C@H](CO)NC(=O)[C@H](C)NC(=O)COCCOCCNC(=O)COCCOCCNC(=O)COCCOCCNC(=O)COCCOCCNC(=O)COCCOCCNC(=O)COCCOCCNC(=O)CC[C@H](NC(=O)CCCCCCCCCCCCCCCCCCC(=O)O)C(=O)O)[C@@H](C)O)[C@@H](C)O)[C@@H](C)O)C(=O)N[C@@H](CC(C)C)C(=O)N1CCC[C@H]1C(=O)N1CCC[C@H]1C(=O)N[C@H](C(=O)N[C@@H](CC(N)=O)C(=O)N[C@H](C(=O)NCC(=O)N[C@@H](CO)C(=O)N[C@@H](CC(N)=O)C(=O)N[C@H](C(=O)N1CCC[C@H]1C(N)=O)[C@@H](C)O)C(C)C)[C@@H](C)O [M25] ({C20 diacid-γGlu-AEEA-AEEA-AEEA-AEEA-AEEA-AEEA}-ASQLSTAATQRLADFLRHFTDRDRDILPPTNVGSNTP-NH2)	25	
CC[C@H](C)[C@H](NC(=O)[C@@H]1CCCN1C(=O)[C@H](CCCCN)NC(=O)[C@H](CC(C)C)NC(=O)[C@H](CC(N)=O)NC(=O)[C@H](CC(N)=O)NC(=O)[C@H](CO)NC(=O)[C@H](CO)NC(=O)[C@H](Cc1c[nH]cn1)NC(=O)[C@H](CCCNC(=N)N)NC(=O)[C@H](CC(C)C)NC(=O)[C@H](Cc1ccccc1)NC(=O)[C@H](CC(=O)O)NC(=O)[C@H](C)NC(=O)[C@H](CC(C)C)NC(=O)[C@H](CCCNC(=N)N)NC(=O)[C@H](CCC(N)=O)NC(=O)[C@@H](NC(=O)[C@H](C)NC(=O)[C@H](C)NC(=O)[C@@H](NC(=O)[C@H](CO)NC(=O)[C@H](CC(C)C)NC(=O)[C@H](CCC(N)=O)NC(=O)[C@H](CO)NC(=O)[C@H](C)NC(=O)[C@H](CCC(=O)O)NC(=O)CCCCCCCCCCCCCCCCCCC(=O)O)[C@@H](C)O)[C@@H](C)O)C(=O)N[C@@H](CC(C)C)C(=O)N1CCC[C@H]1C(=O)N1CCC[C@H]1C(=O)N[C@H](C(=O)N[C@@H](CC(N)=O)C(=O)N[C@H](C(=O)NCC(=O)N[C@@H](CO)C(=O)N[C@@H](CC(N)=O)C(=O)N[C@H](C(=O)N1C[C@H](O)C[C@H]1C(N)=O)[C@@H](C)O)C(C)C)[C@@H](C)O [M26] ({C20 diacid}-EASQLSTAATQRLADFLRHSSNNLKPILPPTNVGSNT[Hyp]-NH2)	103	0.049
CC[C@H](C)[C@H](NC(=O)[C@@H]1CCCN1C(=O)[C@H](CCCCN)NC(=O)[C@H](CC(C)C)NC(=O)[C@H](CC(N)=O)NC(=O)[C@H](CC(N)=O)NC(=O)[C@H](CO)NC(=O)[C@H](CO)NC(=O)[C@H](Cc1c[nH]cn1)NC(=O)[C@H](CCCNC(=N)N)NC(=O)[C@H](CC(C)C)NC(=O)[C@H](Cc1ccccc1)NC(=O)[C@H](CC(=O)O)NC(=O)[C@H](C)NC(=O)[C@H](CC(C)C)NC(=O)[C@H](CCCNC(=N)N)NC(=O)[C@H](CCC(N)=O)NC(=O)[C@@H](NC(=O)[C@H](C)NC(=O)[C@H](C)NC(=O)[C@@H](NC(=O)[C@H](CO)NC(=O)[C@H](CC(C)C)NC(=O)[C@H](CCC(N)=O)NC(=O)[C@H](CO)NC(=O)[C@H](C)NC(=O)C[C@H](NC(=O)CCCCCCCCCCCCCCCCCCC(=O)O)C(=O)O)[C@@H](C)O)[C@@H](C)O)C(=O)N[C@@H](CC(C)C)C(=O)N1CCC[C@H]1C(=O)N1CCC[C@H]1C(=O)N[C@H](C(=O)N[C@@H](CC(N)=O)C(=O)N[C@H](C(=O)NCC(=O)N[C@@H](CO)C(=O)N[C@@H](CC(N)=O)C(=O)N[C@H](C(=O)N1C[C@H](O)C[C@H]1C(N)=O)[C@@H](C)O)C(C)C)[C@@H](C)O [M27] ({C20 diacid-βAsp}-ASQLSTAATQRLADFLRHSSNNLKPILPPTNVGSNT[Hyp]-NH2)	78	0.064
CC[C@H](C)[C@H](NC(=O)[C@@H]1CCCN1C(=O)[C@H](CCCCN)NC(=O)[C@H](CC(C)C)NC(=O)[C@H](CC(N)=O)NC(=O)[C@H](CC(N)=O)NC(=O)[C@H](CO)NC(=O)[C@H](CO)NC(=O)[C@H](Cc1c[nH]cn1)NC(=O)[C@H](CCCNC(=N)N)NC(=O)[C@H](CC(C)C)NC(=O)[C@H](Cc1ccccc1)NC(=O)[C@H](CC(=O)O)NC(=O)[C@H](C)NC(=O)[C@H](CC(C)C)NC(=O)[C@H](CCCNC(=N)N)NC(=O)[C@H](CCC(N)=O)NC(=O)[C@@H](NC(=O)[C@H](C)NC(=O)[C@H](C)NC(=O)[C@@H](NC(=O)[C@H](CO)NC(=O)[C@H](CC(C)C)NC(=O)[C@H](CCC(N)=O)NC(=O)[C@H](CO)NC(=O)[C@H](C)NC(=O)[C@H](CC(=O)O)NC(=O)CCCCCCCCCCCCCCCCCCC(=O)O)[C@@H](C)O)[C@@H](C)O)C(=O)N[C@@H](CC(C)C)C(=O)N1CCC[C@H]1C(=O)N1CCC[C@H]1C(=O)N[C@H](C(=O)N[C@@H](CC(N)=O)C(=O)N[C@H](C(=O)NCC(=O)N[C@@H](CO)C(=O)N[C@@H](CC(N)=O)C(=O)N[C@H](C(=O)N1C[C@H](O)C[C@H]1C(N)=O)[C@@H](C)O)C(C)C)[C@@H](C)O [M28] ({C20 diacid}-DASQLSTAATQRLADFLRHSSNNLKPILPPTNVGSNT[Hyp]-NH2)	128	0.039
CC[C@H](C)[C@H](NC(=O)[C@@H]1CCCN1C(=O)[C@H](CCCCN)NC(=O)[C@H](CC(C)C)NC(=O)[C@H](CC(N)=O)NC(=O)[C@H](CC(N)=O)NC(=O)[C@H](CO)NC(=O)[C@H](CO)NC(=O)[C@H](Cc1c[nH]cn1)NC(=O)[C@H](CCCNC(=N)N)NC(=O)[C@H](CC(C)C)NC(=O)[C@H](Cc1ccccc1)NC(=O)[C@H](CC(=O)O)NC(=O)[C@H](C)NC(=O)[C@H](CC(C)C)NC(=O)[C@H](CCCNC(=N)N)NC(=O)[C@H](CCC(N)=O)NC(=O)[C@@H](NC(=O)[C@H](C)NC(=O)[C@H](C)NC(=O)[C@@H](NC(=O)[C@H](CO)NC(=O)[C@H](CC(C)C)NC(=O)[C@H](CCC(N)=O)NC(=O)[C@H](CO)NC(=O)[C@H](C)NC(=O)[C@H]1CC[C@H](CNC(=O)CCCCCCCCCCCCCCCCCCC(=O)O)CC1)[C@@H](C)O)[C@@H](C)O)C(=O)N[C@@H](CC(C)C)C(=O)N1CCC[C@H]1C(=O)N1CCC[C@H]1C(=O)N[C@H](C(=O)N[C@@H](CC(N)=O)C(=O)N[C@H](C(=O)NCC(=O)N[C@@H](CO)C(=O)N[C@@H](CC(N)=O)C(=O)N[C@H](C(=O)N1C[C@H](O)C[C@H]1C(N)=O)[C@@H](C)O)C(C)C)[C@@H](C)O [M29] ({C20 diacid-Trx}-ASQLSTAATQRLADFLRHSSNNLKPILPPTNVGSNT[Hyp]-NH2)	412	
CC[C@H](C)[C@H](NC(=O)[C@@H]1CCCN1C(=O)[C@H](CCCCN)NC(=O)[C@H](CC(C)C)NC(=O)[C@H](CC(N)=O)NC(=O)[C@H](CC(N)=O)NC(=O)[C@H](CO)NC(=O)[C@H](CO)NC(=O)[C@H](Cc1c[nH]cn1)NC(=O)[C@H](CCCNC(=N)N)NC(=O)[C@H](CC(C)C)NC(=O)[C@H](Cc1ccccc1)NC(=O)[C@H](CC(=O)O)NC(=O)[C@H](C)NC(=O)[C@H](CC(C)C)NC(=O)[C@H](CCCNC(=N)N)NC(=O)[C@H](CCC(N)=O)NC(=O)[C@@H](NC(=O)[C@H](C)NC(=O)[C@H](C)NC(=O)[C@@H](NC(=O)[C@H](CO)NC(=O)[C@H](CC(C)C)NC(=O)[C@H](CCC(N)=O)NC(=O)[C@H](CO)NC(=O)[C@H](C)NC(=O)C1CCN(C(=O)CCCCCCCCCCCCCCCCCCC(=O)O)CC1)[C@@H](C)O)[C@@H](C)O)C(=O)N[C@@H](CC(C)C)C(=O)N1CCC[C@H]1C(=O)N1CCC[C@H]1C(=O)N[C@H](C(=O)N[C@@H](CC(N)=O)C(=O)N[C@H](C(=O)NCC(=O)N[C@@H](CO)C(=O)N[C@@H](CC(N)=O)C(=O)N[C@H](C(=O)N1C[C@H](O)C[C@H]1C(N)=O)[C@@H](C)O)C(C)C)[C@@H](C)O [M30] ({C20 diacid-Inp}-ASQLSTAATQRLADFLRHSSNNLKPILPPTNVGSNT[Hyp]-NH2)		0.039
CC[C@H](C)[C@H](NC(=O)[C@@H]1CCCN1C(=O)[C@H](CCCCN)NC(=O)[C@H](CC(C)C)NC(=O)[C@H](CC(N)=O)NC(=O)[C@H](CC(N)=O)NC(=O)[C@H](CO)NC(=O)[C@H](CO)NC(=O)[C@H](Cc1c[nH]cn1)NC(=O)[C@H](CCCNC(=N)N)NC(=O)[C@H](CC(C)C)NC(=O)[C@H](Cc1ccccc1)NC(=O)[C@H](CC(=O)O)NC(=O)[C@H](C)NC(=O)[C@H](CC(C)C)NC(=O)[C@H](CCCNC(=N)N)NC(=O)[C@H](CCC(N)=O)NC(=O)[C@@H](NC(=O)[C@H](C)NC(=O)[C@H](C)NC(=O)[C@@H](NC(=O)[C@H](CO)NC(=O)[C@H](CC(C)C)NC(=O)[C@H](CCC(N)=O)NC(=O)[C@H](CO)NC(=O)[C@H](C)NC(=O)COCCOCCNC(=O)COCCOCCNC(=O)CC[C@H](NC(=O)CCCCCCCCCCCCCCCCCCC(=O)O)C(=O)O)[C@@H](C)O)[C@@H](C)O)C(=O)N[C@@H](CC(C)C)C(=O)N1CCC[C@H]1C(=O)N1CCC[C@H]1C(=O)N[C@H](C(=O)N[C@@H](CC(N)=O)C(=O)N[C@H](C(=O)NCC(=O)N[C@@H](CO)C(=O)N[C@@H](CC(N)=O)C(=O)N[C@H](C(=O)N1C[C@H](O)C[C@H]1C(N)=O)[C@@H](C)O)C(C)C)[C@@H](C)O [M31] ({C20 diacid-γGlu-AEEA-AEEA}-ASQLSTAATQRLADFLRHSSNNLKPILPPTNVGSNT[Hyp]-NH2)	30	0.168
